The record followed here is patent US10004701B2, “Methods and compositions for treating infection” (UNIVERSITY OF ROCHESTER, priority 2012, dated 2018).

Counter-ions that a name gives are not always drawn. Like-named read-outs stand apart in the source and are kept apart here.

Common to all, as to experiment: AK assay 384-well format, Prestwick library screening
One test concerns E. cloacae. The format is cell-based, Enterobacter cloacae. Conditions: 50 μM final drug concentration; for fold induction at 50 µM: Enterobacter cloacae, 3 h.
Test [1] concerns S. aureus strain USA300-0114. The format is cell-based, Staphylococcus aureus. Conditions: 50 μM final drug concentration; for fold induction at 50 µM: Staphylococcus aureus, USA300, 3 h.
The next test relates to E. coli. The format is cell-based, Escherichia coli. Conditions: 50 μM final drug concentration; for fold induction at 50 µM: Escherichia coli, 3 h, cutoff for positive-scoring molecules 3-fold increase.
The subject of another test is K. pneumoniae. The format is cell-based, Klebsiella pneumoniae. Conditions: 50 μM final drug concentration; for fold induction at 50 µM: Klebsiella pneumoniae, 3 h.
Test [2] concerns A. baumannii strain 98-37-09. The format is cell-based, Acinetobacter baumannii. Conditions: 50 μM final drug concentration; for fold induction at 50 µM: Acinetobacter baumannii, 983709, 3 h.
Another test relates to P. aeruginosa. The format is cell-based, Pseudomonas aeruginosa. Conditions: 50 μM final drug concentration; for fold induction at 50 µM: Pseudomonas aeruginosa, 3 h.
The next test relates to E. faecium. The format is cell-based, Enterococcus faecium. Conditions: 50 μM final drug concentration; for fold induction at 50 µM: Enterococcus faecium, 3 h.
[3] abbreviates: cutoff for positive-scoring molecules 3-fold increase, read-out: AK-based Prestwick Library Screening Results, E. cloacae (fold increase in extracellular AK activity).
The mark [4] stands for this setting: cutoff for positive-scoring molecules 3-fold increase, read-out: AK-based Prestwick Library Screening Results, S. aureus (fold increase in extracellular AK activity).
[5] abbreviates: read-out: AK-based Prestwick Library Screening Results, E. coli (fold increase in extracellular AK activity).
[6] abbreviates: cutoff for positive-scoring molecules 3-fold increase, read-out: AK-based Prestwick Library Screening Results, K. pneumoniae (fold increase in extracellular AK activity).
[7] abbreviates: cutoff for positive-scoring molecules 3-fold increase, read-out: AK-based Prestwick Library Screening Results, A. baumannii (fold increase in extracellular AK activity).
Where [8] appears, read: cutoff for positive-scoring molecules 3-fold increase, read-out: AK-based Prestwick Library Screening Results, P. aeruginosa (fold increase in extracellular AK activity).
[9] abbreviates: cutoff for positive-scoring molecules 3-fold increase, read-out: AK-based Prestwick Library Screening Results, E. faecium (fold increase in extracellular AK activity).
Where [10] appears, read: 384-well format, cutoff for positive-scoring molecules 3-fold increase, read-out: AK-based Prestwick Library Screening Results, E. cloacae (increase in extracellular AK activity).
Setting [11] is: 384-well format, cutoff for positive-scoring molecules 3-fold increase, read-out: AK-based Prestwick Library Screening Results, S. aureus (increase in extracellular AK activity).
[12] abbreviates: 384-well format, read-out: AK-based Prestwick Library Screening Results, E. coli (increase in extracellular AK activity).
[13] abbreviates: 384-well format, cutoff for positive-scoring molecules 3-fold increase, read-out: AK-based Prestwick Library Screening Results, K. pneumoniae (increase in extracellular AK activity).
Where [14] appears, read: 384-well format, cutoff for positive-scoring molecules 3-fold increase, read-out: AK-based Prestwick Library Screening Results, A. baumannii (increase in extracellular AK activity).
The mark [15] stands for this setting: 384-well format, cutoff for positive-scoring molecules 3-fold increase, read-out: AK-based Prestwick Library Screening Results, P. aeruginosa (increase in extracellular AK activity).
[16] abbreviates: 384-well format, cutoff for positive-scoring molecules 3-fold increase, read-out: AK-based Prestwick Library Screening Results, E. faecium (increase in extracellular AK activity).
Where [17] appears, read: planktonic E. cloacae, 384-well, cutoff for positive-scoring molecules 3-fold increase, read-out: AK-based Prestwick Library Screening Results: E. cloacae (increase in extracellular AK activity).
The mark [18] stands for this setting: planktonic S. aureus, 384-well, cutoff for positive-scoring molecules 3-fold increase, read-out: AK-based Prestwick Library Screening Results: S. aureus (increase in extracellular AK activity).
Setting [19] is: planktonic E. coli, 384-well, read-out: AK-based Prestwick Library Screening Results: E. coli (increase in extracellular AK activity).
Where [20] appears, read: planktonic K. pneumoniae, 384-well, cutoff for positive-scoring molecules 3-fold increase, read-out: AK-based Prestwick Library Screening Results: K. pneumoniae (increase in extracellular AK activity).
[21] abbreviates: planktonic A. baumannii, 384-well, cutoff for positive-scoring molecules 3-fold increase, read-out: AK-based Prestwick Library Screening Results: A. baumannii (increase in extracellular AK activity).
The mark [22] stands for this setting: planktonic P. aeruginosa, 384-well, cutoff for positive-scoring molecules 3-fold increase, read-out: AK-based Prestwick Library Screening Results: P. aeruginosa (increase in extracellular AK activity).
Setting [23] is: planktonic E. faecium, 384-well, cutoff for positive-scoring molecules 3-fold increase, read-out: AK-based Prestwick Library Screening Results: E. faecium (increase in extracellular AK activity).
Setting [24] is: planktonic, cutoff for positive-scoring molecules 3-fold increase.

As to `Cc1n[nH]c(=O)[nH]c1=O` [Azathymine, 6], the “AK-based Prestwick Library Screening Results: E. cloacae (increase in extracellular AK activity)” value with E. cloacae (planktonic E. cloacae, 384-well, cutoff for positive-scoring molecules 3-fold increase) is listed as 0.6. In test [1] (planktonic S. aureus, 384-well, cutoff for positive-scoring molecules 3-fold increase), the “AK-based Prestwick Library Screening Results: S. aureus (increase in extracellular AK activity)” value worked out at 0.4. Further, the “AK-based Prestwick Library Screening Results: E. coli (increase in extracellular AK activity)” value in the test on E. coli (planktonic E. coli, 384-well, […]) was 0.6. In addition, the “AK-based Prestwick Library Screening Results: K. pneumoniae (increase in extracellular AK activity)” value in the test with K. pneumoniae (planktonic K. pneumoniae, 384-well, cutoff for positive-scoring molecules 3-fold increase) came to 0.5. Also, the “AK-based Prestwick Library Screening Results: A. baumannii (increase in extracellular AK activity)” value in test [2] (planktonic A. baumannii, 384-well, cutoff for positive-scoring molecules 3-fold increase) is listed as 0.5. The “AK-based Prestwick Library Screening Results: P. aeruginosa (increase in extracellular AK activity)” value in the test on P. aeruginosa (planktonic P. aeruginosa, 384-well, cutoff for positive-scoring molecules 3-fold increase) is given as 0.6. For the same molecule, in the test with E. faecium (planktonic E. faecium, 384-well, cutoff for positive-scoring molecules 3-fold increase), the “AK-based Prestwick Library Screening Results: E. faecium (increase in extracellular AK activity)” value amounted to 0.9.
Take `CCOC(=O)O[C@]1(C(=O)COC(=O)CC)CC[C@H]2[C@@H]3CCC4=CC(=O)C=C[C@]4(C)[C@H]3[C@@H](O)C[C@@]21C` [Prednicarbate]: the fold induction at 50 µM with E. cloacae (setting [3]) was found to be 0.3; in test [1] (setting [4]), 0.4; with E. coli (setting [5]), 0.4; in the test with K. pneumoniae (setting [6]), 0.5; in test [2] (setting [7]), 0.4; with P. aeruginosa (setting [8]), 0.4. Besides, the fold induction at 50 µM in the test on E. faecium (setting [9]) was 0.9.
For `OC(CCCN1CCCCC1)(c1ccccc1)c1ccccc1` [Diphenidol hydrochloride], the fold induction at 50 µM in the test on E. cloacae (setting [10]) amounted to 0.8; in test [1] (setting [11]), 0.7; with E. coli (setting [12]), 0.8; in the test with K. pneumoniae (setting [13]), 0.7; in test [2] (setting [14]), 0.7; with P. aeruginosa (setting [15]), 0.8. For the same molecule, the fold induction at 50 µM with E. faecium (setting [16]) worked out at 1.
Turning to `COc1cc2ccc(=O)oc2cc1O` [Scopoletin], the fold induction at 50 µM in the test with E. cloacae (setting [3]) stood at 0.3; in test [1] (setting [4]) it was 0.3; with E. coli (setting [5]), 0.4; in the test on K. pneumoniae (setting [6]), 0.4; in test [2] (setting [7]), 0.4; with P. aeruginosa (setting [8]), 0.4. Moreover, the fold induction at 50 µM in the test on E. faecium (setting [9]) was 0.9.
Consider `NC(N)=NOCC[C@H](N)C(=O)O.O.O=S(=O)(O)O` [Canavanine sulfate monohydrate (L,+)], for which, in the test on E. cloacae (planktonic, […]), the “AK-based Prestwick Library Screening Results, E. cloacae (fold increase in extracellular AK activity)” value is on record as 1.4. Further, the “AK-based Prestwick Library Screening Results, S. aureus (fold increase in extracellular AK activity)” value in test [1] (planktonic, […]) is listed as 1.6. Moreover, in the test on E. coli (planktonic, […]), the “AK-based Prestwick Library Screening Results, E. coli (fold increase in extracellular AK activity)” value stood at 1.2. In addition, the “AK-based Prestwick Library Screening Results, K. pneumoniae (fold increase in extracellular AK activity)” value in the test with K. pneumoniae (planktonic, […]) turned out to be 0.9. Moreover, in test [2] (planktonic, […]), the “AK-based Prestwick Library Screening Results, A. baumannii (fold increase in extracellular AK activity)” value is recorded as 1.1. Also, in the test on P. aeruginosa (planktonic, […]), the “AK-based Prestwick Library Screening Results, P. aeruginosa (fold increase in extracellular AK activity)” value came out at 1.1. Also, the “AK-based Prestwick Library Screening Results, E. faecium (fold increase in extracellular AK activity)” value in the test with E. faecium (planktonic, […]) is recorded as 1.1.
In the case of `CCN(CCCCOC(=O)c1ccc(OC)c(OC)c1)C(C)Cc1ccc(OC)cc1` (centres unmarked) [Mebeverine hydrochloride], the fold induction at 50 µM with E. cloacae (setting [17]) came to 1.3; in test [1] (setting [18]), 1.1; with E. coli (setting [19]) it was 1.3; with K. pneumoniae (setting [20]), 1; in test [2] (setting [21]) it was 1.4; with P. aeruginosa (setting [22]) it was 1.1. The fold induction at 50 µM in the test on E. faecium (setting [23]) came to 1.
As for `CC1(C)O[C@@H]2C[C@H]3[C@@H]4CCC5=CC(=O)CC[C@]5(C)[C@@]4(F)[C@@H](O)C[C@]3(C)[C@]2(C(=O)CCl)O1` [Halcinonide], the fold induction at 50 µM with E. cloacae (planktonic, cutoff for positive-scoring molecules 3-fold increase, read-out: AK-based Prestwick Library Screening Results, E. cloacae (fold increase in extracellular AK activity)) was 0.8; in test [1] (planktonic, cutoff for positive-scoring molecules 3-fold increase, read-out: AK-based Prestwick Library Screening Results, S. aureus (fold increase in extracellular AK activity)) it was 0.6; in the test on E. coli (planktonic, read-out: AK-based Prestwick Library Screening Results, E. coli (fold increase in extracellular AK activity)), 0.6; in the test with K. pneumoniae (planktonic, cutoff for positive-scoring molecules 3-fold increase, read-out: AK-based Prestwick Library Screening Results, K. pneumoniae (fold increase in extracellular AK activity)) it was 0.5; in test [2] (planktonic, cutoff for positive-scoring molecules 3-fold increase, read-out: AK-based Prestwick Library Screening Results, A. baumannii (fold increase in extracellular AK activity)), 0.7; in the test with P. aeruginosa (planktonic, cutoff for positive-scoring molecules 3-fold increase, read-out: AK-based Prestwick Library Screening Results, P. aeruginosa (fold increase in extracellular AK activity)) it was 0.7. The fold induction at 50 µM in the test on E. faecium (planktonic, cutoff for positive-scoring molecules 3-fold increase, read-out: AK-based Prestwick Library Screening Results, E. faecium (fold increase in extracellular AK activity)) is 0.9.
As to `CN(C)CCCN1c2ccccc2Sc2ccc(Cl)cc21` [Chlorpromazine hydrochloride], the fold induction at 50 µM came to 1.4 in the test on E. cloacae (setting [17]); 1.4 in test [1] (setting [18]); 1.4 with E. coli (setting [19]); 1.1 with K. pneumoniae (setting [20]); 1.5 in test [2] (setting [21]); 1.1 with P. aeruginosa (setting [22]). The fold induction at 50 µM in the test on E. faecium (setting [23]) came to 1.
Foliosidine: in the test on E. cloacae (setting [24]), the “AK-based Prestwick Library Screening Results, E. cloacae (fold increase in extracellular AK activity)” value is recorded as 1.0. The “AK-based Prestwick Library Screening Results, S. aureus (fold increase in extracellular AK activity)” value in test [1] (setting [24]) is 0.7. In addition, in the test on E. coli (planktonic, […]), the “AK-based Prestwick Library Screening Results, E. coli (fold increase in extracellular AK activity)” value is given as 0.9. Besides, in the test with K. pneumoniae (setting [24]), the “AK-based Prestwick Library Screening Results, K. pneumoniae (fold increase in extracellular AK activity)” value was found to be 0.8. Also, the “AK-based Prestwick Library Screening Results, A. baumannii (fold increase in extracellular AK activity)” value in test [2] (setting [24]) was 0.8. Moreover, in the test on P. aeruginosa (setting [24]), the “AK-based Prestwick Library Screening Results, P. aeruginosa (fold increase in extracellular AK activity)” value turned out to be 0.8. For the same molecule, in the test on E. faecium (setting [24]), the “AK-based Prestwick Library Screening Results, E. faecium (fold increase in extracellular AK activity)” value came to 0.9.
Regarding `N=C(N)N/N=C/c1c(Cl)cccc1Cl` [Guanabenz acetate], the fold induction at 50 µM in the test on E. cloacae (setting [10]) is 0.7; in test [1] (setting [11]), 0.5; in the test on E. coli (setting [12]), 0.7; with K. pneumoniae (setting [13]), 0.4; in test [2] (setting [14]), 0.8; in the test with P. aeruginosa (setting [15]), 0.6. Further, the fold induction at 50 µM with E. faecium (setting [16]) amounted to 1.
Regarding `CC(N)CCCC(C)(C)O` (centres unmarked) [Heptaminol hydrochloride], the fold induction at 50 µM in the test on E. cloacae (setting [10]) stood at 0.7; in test [1] (setting [11]), 0.7; with E. coli (setting [12]), 0.8; in the test with K. pneumoniae (setting [13]), 0.5; in test [2] (setting [14]), 0.6; with P. aeruginosa (setting [15]), 0.5. Besides, the fold induction at 50 µM with E. faecium (setting [16]) is 0.9.
